Results as given in patent US10647690B2, “2,3-epoxy succinyl derivative, preparation method and use thereof” (Institute of Pharmacology and Toxicology Academy of …, priority 2016, dated 2020).
Read-outs that look alike come from different tables or passages of the source.

What was measured:
Cathepsin B = target: T1, Cathepsin B (Homo sapiens, UniProt P07858); experiment: IC50 determination against Cathepsin B (Biovision kit K147-100); format: biochemical; conditions: for Selectiviy vs Cathepsin K (fold): selectivity for Cathepsin B over Cathepsin K; for Selectiviy vs Cathepsin L (fold): selectivity for Cathepsin B over Cathepsin L; for Selectiviy vs Cathepsin S (fold): selectivity for Cathepsin B over Cathepsin S; for selectivity for Cathepsin B: statement in words, versus Cathepsin K, L, S
T1 construct: purchased Biovision K147-100
Procedure: 2. Method for determining IC50 of compounds against cathepsin:
IC50 of compounds against Cathepsin B was determined by using Cathepsin B Inhibitor Screening Kit (Product No. K147-100) from Biovision Company;
2.1.1.2 Preparation of Cathepsin B solution: Cathepsin B enzyme (23 μl) and Cathepsin B reagent (46 μl) were added to Cathepsin B buffer (2231 μl), and mixed well, to prepare Cathepsin B enzyme solution with a volume of 2.3 ml, which was placed on ice for further use.
2.1.2 Preparation of compound solutions: 30 mM and 10 mM compound stock solutions, and control compounds were gradiently diluted in DMSO at a ratio of 1:3, wherein the maximum dilution fold was 19683; the gradiently diluted compound solution (3 μl) was added to Cathepsin K, B, L, and S buffer (27 μl), respectively, and mixed well, wherein the control compounds (FF-FMK, F-F-FMK, FF-FMK and Z-FF-FMK) were at the concentrations of 66.67, 22.22, 7.41, 2.47, 0.82, 0.27, 0.091, 0.03, 0.01, 0.0034 and 0 μM, respectively, the test compounds were at the concentrations of 1000, 333.3, 111.1, 37, 12.3, 4.1, 1.4, 0.46, 0.15, 0.05 and 0 μM, respectively, and the final concentration of DMSO was 10%.
2.1.3.2 Cathepsin B: Cathepsin B substrate (90 μl) was added to Cathepsin B buffer (1710 μl), and mixed well, to prepare Cathepsin B substrate solution with a volume of 1.8 ml, which was placed on ice for further use.
Method for screening cathepsin inhibitors: the cathepsin solution (prepared in Item 2.1.1) was added to a 384-well plate (ProxiPlate-384 Plus, Perkinelmer) at 10 μl/well, and centrifuged at 1000 rpm for Imin; the compound solution (prepared in Item 2.1.2) was then added at 2 μl/well, and every concentration was repeated in two wells; the final concentrations of the test compounds were 100, 33.3, 11.1, 3.7, 1.23, 0.41, 0.14, 0.046, 0.015, 0.005 and 0 μM, respectively, wherein the final concentration of DMSO was 1%; after centrifugation at 1000 rpm for 1 min, the plate was put in a 25° C. incubator for 15 min; the cathepsin substrate solution was then added at 8 µl/well, and centrifuged at 1000 rpm for 1 min; and finally, the fluorescence signal was read in Enspire, wherein the exciting light was at a wavelength of 400 nm, the emitting light was at a wavelength of 505 nm, and continuous reading was performed at 37° C. for 120 min.
Data analysis: the slope (S) for all the samples was calculated by ΔRFU(RFU2−RFU1) and time ΔT(T2−T1), including negative control (Enzyme Control, EC) and positive control (Inhibitor Control, IC: 10 μM (FF-FMK, F-F-FMK, FF-FMK and Z-FF-FMK), and the calculation formula was as followed: Relative inhibition rate %=(SEC−SS)/(SEC−SIC)*100. The IC50 for each compound was obtained by means of fitting by software GraphPad Prism 5.0.

Cathepsin K = target: T2, Cathepsin K (Homo sapiens, UniProt P43235); experiment: Preliminary screening of Cathepsin K (Cathepsin K Inhibitor Screening Kit K150-100, Biovision); format: biochemical; conditions: relative inhibition rate vs 10 μM FF-FMK control
T2 construct: purchased Biovision K150-100
T2 sequence (P43235 115-329): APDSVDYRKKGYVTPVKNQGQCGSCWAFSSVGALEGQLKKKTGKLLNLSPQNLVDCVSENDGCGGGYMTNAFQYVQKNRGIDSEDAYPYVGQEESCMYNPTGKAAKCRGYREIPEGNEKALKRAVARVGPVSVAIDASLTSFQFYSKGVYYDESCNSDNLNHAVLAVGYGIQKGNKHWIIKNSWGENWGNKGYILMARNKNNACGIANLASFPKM
Method in brief: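 Percent inhibition was derived from kinetic slopes (ΔRFU/Δt, ex 400/em 505 nm, 120 min at 37 °C), normalized between an uninhibited enzyme control and 10 μM FF-FMK. Compounds were added from 100 μM or 10 μM working solutions (10% DMSO) to Cathepsin K and preincubated 15 min at 25 °C before substrate.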

[1] = CTSB, Exp-1, read-out: IC50 (nM) Exp-1
[2] = CTSB, Exp-2, read-out: IC50 (nM) Exp-2
[3] = CTSB, average of Exp-1 and Exp-2, read-out: Ave of IC50
[4] = Table 3, average ± STDEV, read-out: Cathepsin B IC50
[5] = 1 μM compound, replicate 1, read-out: Inhibition % (1 μM) replicate 1
[6] = 1 μM compound, replicate 2, read-out: Inhibition % (1 μM) replicate 2
[7] = 10 μM compound, replicate 1, read-out: Inhibition % (10 μM) replicate 1
[8] = 10 μM compound, replicate 2, read-out: Inhibition % (10 μM) replicate 2

| IC50 (Cathepsin B; [1]) [nM] | IC50 (Cathepsin B; [2]) [nM] | IC50 (Cathepsin B; [3]) [nM] | IC50 (Cathepsin B; [4]) [nM] | Selectiviy vs Cathepsin K (fold) (Cathepsin B) | Selectiviy vs Cathepsin L (fold) (Cathepsin B) | Selectiviy vs Cathepsin S (fold) (Cathepsin B) | selectivity for Cathepsin B (Cathepsin B) | inhibition at 1 µM (Cathepsin K; [5]) [%] | inhibition at 1 µM (Cathepsin K; [6]) [%] | inhibition at 10 µM (Cathepsin K; [7]) [%] | inhibition at 10 µM (Cathepsin K; [8]) [%] | Inhibition % (1 μM) replicate 1 (Cathepsin K; 1 μM compound, replicate 1) [%] | Inhibition % (1 μM) replicate 2 (Cathepsin K; 1 μM compound, replicate 2) [%] | Inhibition % (10 μM) replicate 1 (Cathepsin K; 10 μM compound, replicate 1) [%] | Inhibition % (10 μM) replicate 2 (Cathepsin K; 10 μM compound, replicate 2) [%] | SMILES |
| --- | --- | --- | --- | --- | --- | --- | --- | --- | --- | --- | --- | --- | --- | --- | --- | --- |
| 7.19 | 9.33 | 8.27 | 8.27 ± 1.51 | 181 | 278 | 497 | strong selectivity for Cathepsin B | 90.9 | 89.5 | 91.3 | 95.7 | – | – | – | – | CCCCCCNC(=O)[C@H](CCSC)NC(=O)[C@H]1O[C@@H]1C(=O)OCC [Compound 5, (2s, 3s)-2-ethoxycarbonyl-3-[2-[(s)-4-methylthio-1-carbonyl-1-(hexylamino)butane]formylamino]epoxysuccinic acid] |
| 17.6 | 20.7 | 19.2 | 19.2 ± 2.26 | 116 | 210 | 524 | strong selectivity for Cathepsin B | 80.5 | 78.9 | 96.9 | 94.1 | – | – | – | – | CCOC(=O)[C@H]1O[C@@H]1C(=O)N[C@@H](CCSC)C(=O)NCCCc1ccccc1 [Compound 8, (2s, 3s)-2-ethoxycarbonyl-3-[2-[(s)-4-methylthio-1-carbonyl-1-(3-phenylpropylamino)butane]formylamino]epoxysuccinic acid] |
| 3.76 | 4.64 | 4.2 | 4.2 ± 0.63 | 40 | 1563 | 357 | strong selectivity for Cathepsin B | 99.7 | 98.9 | 108 | 106 | – | – | – | – | CCOC(=O)[C@H]1O[C@@H]1C(=O)N[C@@H](CCSC)C(=O)N1CCC(c2ccccc2)CC1 [Compound 13, (2s, 3s)-2-ethoxycarbonyl-3-[2-[(s)-4-methylthio-1-carbonyl-1-(phenylpiperidinyl)butane]formylamino]epoxysuccinic acid] |
| 22.3 | 25.9 | 24.1 | 24.1 ± 2.59 | 21 | – | 167 | strong selectivity for Cathepsin B | 88.6 | 90.8 | 94.4 | 95.7 | – | – | – | – | CCOC(=O)[C@H]1O[C@@H]1C(=O)N[C@@H](CCSC)C(=O)NCCc1cccc(F)c1 [Compound 34, (2s, 3s)-2-ethoxycarbonyl-3-[2-[(s)-4-methylthio-1-carbonyl-1-(3-fluorophenylethylamino)butane]formylamino]epoxysuccinic acid] |
| 68.5 | 80 | 74.3 | 74.3 ± 8.18 | 22 | 129 | 193 | strong selectivity for Cathepsin B | 81.5 | 85.2 | 97.3 | 99.5 | – | – | – | – | CCOC(=O)[C@H]1O[C@@H]1C(=O)N[C@@H](CCSC)C(=O)NC(CC)CC [Compound 39, (2s, 3s)-2-ethoxycarbonyl-3-[2-[(s)-4-methylthio-1-carbonyl-1-(1-ethylpropylamino)butane]formylamino]epoxysuccinic acid] |
| 20.3 | 27.1 | 23.7 | 23.7 ± 4.78 | 28 | 185 | 149 | strong selectivity for Cathepsin B | 85.5 | 89.1 | 91.1 | 94.9 | – | – | – | – | CCOC(=O)[C@H]1O[C@@H]1C(=O)N[C@@H](CCSC)C(=O)NCCCCc1ccccc1 [Compound 40, (2s, 3s)-2-ethoxycarbonyl-3-[2-[(s)-4-methylthio-1-carbonyl-1-(4-phenylbutylamino)butane]formylamino]epoxysuccinic acid] |
| 10.6 | 13.5 | 12 | 12 ± 2.03 | 39 | 15 | 55 | – | – | – | – | – | 85.73 | 87.75 | 90.96 | 98.34 | CCOC(=O)[C@H]1O[C@@H]1C(=O)N[C@@H](CC(C)C)C(=O)NCCC(C)C [zxy-37, E64d, reference compound] |
